Measured values taken from ChEMBL document CHEMBL1145843 (J Med Chem, 2003).
pIC50: −log10 of the molar value. Active and inactive are the calls of the source.

Legend:
Plasmodium falciparum [1] = assay: Growth inhibition against Plasmodium falciparum NF54; Not active <= 3000nM; format: functional, organism-based
Plasmodium falciparum [2] = assay: Growth inhibition against Plasmodium falciparum K1; Not active <= 3000nM; format: functional, organism-based
[3] = Inhibitory concentration of compound for inhibiting hematin polymerization; format: functional
[4] = Hematin binding affinity of compound was determined as a measure of inhibiting hematin polymerization

Structure (SMILES): CCN(CC)CCCC(C)Nc1cccc2cc(Cl)ccc12 (configuration not stated)
- NI (Plasmodium falciparum [1]): inactive
- NI (Plasmodium falciparum [2]): inactive
- pIC50 [3]: < 2.60

Structure (SMILES): CCN(CC)CCCC(C)Cc1ccnc2cc(Cl)ccc12 (configuration not stated)
- NI (Plasmodium falciparum [1]): inactive
- NI (Plasmodium falciparum [2]): inactive
- Ka [4]: 84000 M⁻¹
- pIC50 [3]: 2.82
